Common to all, as to assay: two-electrode voltage clamp, Xenopus oocytes, inward current
Common to all, as to format: cell-based

The target of experiment [1] is T1, HarmGR13 (Helicoverpa armigera, UniProt Z9NT97MFL8, D92A).
T1 construct: full-length, 436 aa; cDNA from larval maxillary galea; pCS2+ cRNA injected into Xenopus laevis oocytes; expressed alone
T1 sequence (Z9NT97MFL8 1-436 D92A): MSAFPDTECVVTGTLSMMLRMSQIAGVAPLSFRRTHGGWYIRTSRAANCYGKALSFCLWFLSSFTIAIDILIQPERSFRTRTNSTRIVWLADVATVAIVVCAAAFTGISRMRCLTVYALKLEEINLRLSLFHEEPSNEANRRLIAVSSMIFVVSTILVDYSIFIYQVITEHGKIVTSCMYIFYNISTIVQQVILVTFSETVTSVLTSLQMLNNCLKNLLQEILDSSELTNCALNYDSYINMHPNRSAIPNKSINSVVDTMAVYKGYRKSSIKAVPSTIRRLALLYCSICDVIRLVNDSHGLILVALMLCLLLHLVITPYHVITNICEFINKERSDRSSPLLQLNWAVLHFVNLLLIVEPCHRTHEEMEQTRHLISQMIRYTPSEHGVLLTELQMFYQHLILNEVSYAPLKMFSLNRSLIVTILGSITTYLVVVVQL
To be noted: Ringer's solution pH 7.6, -80 mV; 100 mM inositol.

Experiment [2] addresses T2, HarmGR13 (Helicoverpa armigera, UniProt Z9NT97MFL8).
T2 construct: full-length, 436 aa; cDNA from larval maxillary galea; pCS2+ cRNA injected into Xenopus laevis oocytes; expressed alone
T2 sequence (Z9NT97MFL8 1-436): T1 sequence (Z9NT97MFL8 1-436 D92A)
The settings on record: Ringer's solution pH 7.6, -80 mV; agonist; dose-response curve in Fig 5B, EC50 not given.

Experiment [3] has as its target T3, HarmGR13 (Helicoverpa armigera, UniProt Z9NT97MFL8, D159A).
T3 construct: full-length, 436 aa; cDNA from larval maxillary galea; pCS2+ cRNA injected into Xenopus laevis oocytes; expressed alone
T3 sequence (Z9NT97MFL8 1-436 D159A): T1 sequence (Z9NT97MFL8 1-436 D92A)
The settings on record: Ringer's solution pH 7.6, -80 mV; 100 mM inositol.

Experiment [4] has as its target T1, HarmGR13. The settings on record: Ringer's solution pH 7.6, -80 mV; 500 mM ribose.
In experiment [5] the target is T3, HarmGR13. To be noted: Ringer's solution pH 7.6, -80 mV; 500 mM ribose.

Structures are written as SMILES.

Turning to `O[C@H]1[C@H](O)[C@@H](O)[C@H](O)[C@@H](O)[C@H]1O` [myo-inositol], the “inward current at 100 mM” value in experiment [1] and in experiment [3] was “each of three mutated HarmGR13 did not show any inward currents” throughout. This compound also displayed a threshold concentration in experiment [2] of 1 mM.
With `OC1OC[C@@H](O)[C@@H](O)[C@H]1O` (stereo partly drawn) [ribose], the “inward current at 500 mM” value in experiment [4] and in experiment [5] was “each of three mutated HarmGR13 did not show any inward currents” in each case. This compound registered a threshold concentration in experiment [2] of 10 mM.

(Values after paper PMC12165416, “HarmGR13 mediates myo-inositol taste perception in Helicoverpa armigera larvae” (PLOS Genetics, 2025).)
